Source: ChEMBL document CHEMBL1131267, “Diastereoselective synthesis of octahydro-14H-benzo[g]quinolino-[2,3-a]quinolidines. Improved cytotoxic activity against human brain tumor cell lines as a result of the increased rigidity of the molecular backbone” (1998)

Experiments:
Format in all cases: functional
Details in all cases: read-out: LC50 (the source's name)
[1] = system: D283 Med; assay: Compound was evaluated for cytotoxicity against human medulloblastoma (D283 Med) cell line
[2] = system: T98G; assay: Compound was evaluated for cytotoxicity against human glioblastoma (T98G) cell line
[3] = system: A 172; assay: Compound was evaluated for cytotoxicity against human glioblastoma (A172) cell line

Row | SMILES | CC50 [1] [µM] | CC50 [2] [µM] | CC50 [3] [µM]
1 | C=C(C)[C@H]1CCN2Cc3ccccc3C[C@H]2[C@H]1NCc1ccc(Cl)cc1 | 29 | 42 | 55
2 | Cc1ccc2c(c1)C(C)(C)[C@H]1CCN3Cc4ccccc4C[C@H]3[C@H]1N2 | 20 | 20 | 25
3 | CC1(C)c2ccccc2N[C@@H]2[C@@H]3Cc4ccccc4CN3CC[C@@H]21 | 22 | 14 | 45
4 | Cc1cccc2c1N[C@@H]1[C@@H]3Cc4ccccc4CN3CC[C@@H]1C2(C)C | 20 | 21 | 31
5 | COc1ccc2c(c1)C(C)(C)[C@H]1CCN3Cc4ccccc4C[C@H]3[C@H]1N2 | 25 | 35 | 42
6 | CC1(C)c2cc(Cl)ccc2N[C@@H]2[C@@H]3Cc4ccccc4CN3CC[C@@H]21 | 8 | 12 | 22
7 | CC1(C)c2cc(C(F)(F)F)ccc2N[C@@H]2[C@@H]3Cc4ccccc4CN3CC[C@@H]21 | 17 | 13 | 20
